Broadly, the melting point is the temperature of the solid-liquid transition. Usually IC50 stands for the concentration that inhibits the measured activity by half. High values mean a need for much substance, low ones inhibition by little substance.

The structures appear in SMILES notation.

We go through 13 compounds from patent publication US6420387B1, “Farnesyl protein transferase inhibiting (imidazol-5-yl) methyl-2-quinolinone derivatives” (Janssen Pharmaceutica N.V., priority 1995, dated 2002).

For data set [1], the system named is T24 activated human H-ras gene transformed NIH 3T3 fibroblast cells (T24 cells). The data set can be described thus: Farnesyl protein transferase inhibitor secondary tumor model. The class given is in vivo. The conditions noted are these: nude mice with subcutaneous T24 cell tumors, 15 days of treatment. The source says:
The enzyme farnesyl protein transferase catalyzes the covalent attachment of a farnesyl moiety derived from farnesyl pyrophosphate to the oncogene product p21^ras. This directs p21^ras to attach to plasma membranes. Once attached to plasma membranes, mutant or oncogenic forms of p21^ras will provide a signal for the transformation and uncontrolled growth of malignant tumor cells. Therefore, inhibitors of protein farnesyl transferase will prevent the membrane attachment of p21^ras and inhibit growth of ras-transformed tumors.
Nude mice are inoculated with 1×10^6 of T24 activated human H-ras gene transformed NIH 3T3 fibroblast cells (T24 cells), subcutaneously in the inguinal region. After three days to allow tumors to become established, treatment with test compounds is begun via the oral route. The test compounds are dissolved in a 20% β-cyclodextrin in 0.1 N HCl solution and administered orally as 0.1 ml of compound solution per 10 g mouse body weight. Routinely used doses are 6.25, 12.5 and 25 mg/kg. Body weights and tumor sizes are monitored during the ensuing 15 days of treatment. At the end of treatment, animals are sacrificed and tumors are weighed.
The “mean vehicle treated tumor weight” is defined as the mean tumor weight from 10 to 15 mice […].
The “mean tumor weight” is defined as the mean tumor weight from 10 to 15 mice […]. [formula]

In data set [2] the test system is NIH 3T3 cells transformed by the T24 activated human H-ras gene. The data set can be described thus: Ras-transformed cell phenotype reversion assay. The class given is cell-based, mouse. The conditions noted are these: NIH3T3; cell counts after 72 hours proliferation, corrected for initial input of 200,000 cells. From the text:
Insertion of activated oncogenes such as the mutant ras gene into mouse NIH 3T3 cells converts the cells to a transformed phenotype. The cells become tumorigenic, display anchorage independent growth in semi-solid medium and lose contact inhibition. Loss of contact inhibition produces cell cultures which no longer form uniform monolayers. Rather, the cells pile up into multicellular nodules and grow to very high saturation densities in plastic tissue culture dishes. Agents such as protein farnesyl transferase inhibitors which revert the ras transformed phenotype restore the uniform monolayer growth pattern to cells in culture. This reversion is easily monitored by counting the number of cells in tissue culture plates. Transformed cells will achieve higher cell numbers than cells which have reverted to an untransformed phenotype. Compounds which revert the transformed phenotype should produce antitumor effects in tumors bearing ras gene mutations.
Compounds are screened in tissue culture in NIH 3T3 cells transformed by the T24 activated human H-ras gene. Cells are seeded at an initial density of 200,000 cells per well (9.6 cm^2 surface area) in six-well cluster tissue culture plates. Test compounds are immediately added to 3.0 ml cell growth medium in a 3.0 μl volume of DMSO, with a final concentration of DMSO in the cell growth medium of 0.1%. The test compounds are run at concentrations of 5, 10, 50, 100, and 500 nM along with a DMSO treated vehicle control. (In case a high activity is observed at 5 nM, the test compound is tested at even lower concentrations.) The cells are allowed to proliferate for 72 hours. Then the cells are detached in 1.0 ml trypsin-EDTA cell dissociation medium and counted on a Coulter particle counter.
Cell numbers expressed as cells per well are measured using a Coulter Particle Counter.
All cell counts were corrected for the initial cell input density by subtracting 200,000.
Control cell counts=[cell counts from cells incubated with DMSO vehicle −200,000].
Test compound cell counts=[cell counts from cells incubated with test compound −200,000]. [formula]
IC50 (i.e. the test compound concentration required to inhibit enzyme activity by 50%) is calculated if sufficient data are available, summarized in table 11.

In data set [3] the target is T1, Human farnesyl protein transferase (Homo sapiens, UniProt P49354+P49356).
T1 construct: grown as monolayer cell cultures were used as a source of human enzyme; endogenous in cells; host or cells: KHOS (Kirsten virus transformed human osteosarcoma) cells, grown as solid tumors in nude mice or as monolayer cultures; 30-50% ammonium sulfate fraction, then Q Fast Flow Sepharose
As to the kind of experiment: In vitro assay for inhibition of farnesyl protein transferase (scintillation proximity assay). The class given is biochemical. The conditions noted are these: concentration producing 50% inhibition of enzyme activity; [3H]-farnesylpyrophosphate and biotinylated lamin B peptide substrates, 60 min at 37° C. Here is the method: Human farnesyl protein transferase was prepared essentially as described (Y. Reiss et al., Methods: A Companion to Methods in Enzymology vol 1, 241-245, 1990). Kirsten virus transformed human osteosarcoma (KHOS) cells (American Type Culture Collection, Rockville, Md., USA) grown as solid tumors in nude mice or grown as monolayer cell cultures were used as a source of human enzyme. Briefly, cells or tumors were homogenized in buffer containing 50 mM Tris, 1 mM EDTA, 1 mM EGTA and 0.2 mM phenylmethylsulfonylfluoride (pH 7.5). The homogenates were centrifuged 28,000×g for 60 min and the supernatants collected. A 30-50% ammonium sulfate fraction was prepared, and the resulting precipitate was resuspended in a small (10 to 20 ml) volume of dialysis buffer containing 20 mM Tris 1 mM dithiothreitol and 20 μM ZnCl2. The ammonium sulfate fraction was dialyzed overnight against two changes of the same buffer. The dialyzed material was applied to a 10×1 cm Q Fast Flow Sepharose (Pharmacia LKB Biotechnology Inc., Piscataway, N.J., USA) which had been preequilibrated with 100 ml of dialysis buffer supplemented with 0.05 M NaCl. The column was washed with an additional 50 ml of dialysis buffer plus 0.05 M NaCl followed by a gradient from 0.05 M to 0.25 M NaCl prepared in dialysis buffer. The enzyme activity was eluted with a linear gradient of 0.25 to 1.0 M NaCl prepared in the dialysis buffer. Fractions containing 4 to 5 ml volumes of column eluate were collected and analyzed for farnesyl protein transferase activity. Fractions with enzyme activity were pooled and supplemented with 100 μM ZnCl2. Enzyme samples were stored frozen at −70° C.
The activity of farnesyl protein transferase was measured using the Farnesyl Transferase [^3H] Scintillation Proximity Assay (Amersham International plc., England) under the conditions specified by the manufacturer. To assay for inhibitors of the enzyme, 0.20 μCi of the [^3H]-famesylpyrophosphate substrate and the biotinylated lamin B peptide substrate (biotin-YRASNRSCAIM) were mixed with test compounds in a reaction buffer consisting of 50 mM HEPES, 30 mM MgCl2, 20 mM KCl, 5 mM dithiothreitol, 0.01% Triton X-100. Test compounds were delivered in a 10 μl volume of dimethylsulfoxide (DMSO) to achieve concentrations of 1 and 10 μg/ml in a final volume of 100 μl. The reaction mixture was warmed to 37° C. The enzyme reaction was started by adding 20 μl of diluted human farnesyl protein transferase. Sufficient enzyme preparation was added to produce between 4000 to 15000 cpm of reaction product during the 60 min of reaction incubation at 37° C. Reactions were terminated by the addition of STOP/scintillation proximity bead reagent (Amersham). The reaction product [^3H]-farnesyl-(Cys)-biotin lamin B peptide was captured on the streptavidin linked scintillation proximity bead. The amount of [^3H]-farnesyl-(Cys)-biotin lamin B peptide synthesized in the presence or absence of test compounds was quantified as cpm by counting on a Wallac Model 1480 Microbeta Liquid Scintillation Counter. The cpm of product was considered to be farnesyl protein transferase activity. The protein farnesyl transferase activity observed in the presence of test compound was normalized to farnesyl transferase activity in the presence of 10% DMSO and expressed as per cent inhibition. […] The effects of test compounds in these studies were calculated as IC50 (concentration of test compound producing 50% inhibition of enzyme activity) using the LGICV50 computer program written by the Science Information Division of R. W. Johnson Pharmaceutical Research Institute (Spring House, Pa., USA) on a VAX computer.
On the technique in general: Scintillation proximity formats need no separation of bound from free tracer.

`Cn1cnc(C(c2ccc(Cl)cc2)c2ccc3c(c2)c(-c2ccccc2)cc(=O)n3C)c1` (racemic) [Compound 44, (±)-6-[(4-chlorophenyl)(1-methyl-1H-imidazol-4-yl)methyl]-1-methyl-4-phenyl-2(1H)-quinolinone] showed a melting point of 149.9 °C. With `CC(=O)NC(c1ccc(Cl)cc1)(c1ccc2c(c1)c(-c1cccc(Cl)c1)cc(=O)n2C)c1cncn1C.O=C(O)C(=O)O` (racemic) [Compound 56, (±)-N-[(4-chlorophenyl)[4-(3-chlorophenyl)-1,2-dihydro-1-methyl-2-oxo-6-quinolinyl](1-methyl-1H-imidazol-5-yl)methyl]acetamide ethanedioate (1:1)], in data set [1], the “% reduction final tumor weight at a dose of 25 mg/kg bid, po” value amounted to 42%. The compound further had an IC50 in data set [2] of 23 nM. `Cn1cncc1C(c1ccc(Cl)cc1)c1ccc2c(c1)c(-c1cccc(Cl)c1)cc(=O)n2C` (racemic) (hydrate or solvate) [Compound 5, (±)-4-(3-chlorophenyl)-6-[(4-chlorophenyl)(1-methyl-1H-imidazol-5-yl)methyl]-1-methyl-2(1H)-quinolinone ethanedioate(1:1).mono-hydrate] came in with a melting point of 157.4 °C.

`Cn1cncc1C(O)(c1ccc(Cl)cc1)c1ccc2c(c1)c(-c1cccc(Cl)c1)cc(=O)n2C` (racemic) [Compound 3, (±)-4-(3-chlorophenyl)-6-[(4-chlorophenyl)hydroxy(1-methyl-1H-imidazol-5-yl)methyl]-1-methyl-2(1H)-quinolinone] showed a melting point of 233.6 °C. The same compound showed an IC50 in data set [3] of 1.7 nM.

Take `CCCCn1cncc1C(O)(c1ccc(Cl)cc1)c1ccc2c(c1)c(-c1cccc(Cl)c1)cc(=O)n2C` (racemic) [Compound 9, (±)-4-(3-chlorophenyl)-6-[(1-butyl-1H-imidazol-5-yl)(4-chlorophenyl)hydroxymethyl]-1-methyl-2(1H)-quinolinone]: the melting point was 174.6 °C. In turn, `Cn1cncc1C(c1ccc(Cl)cc1)c1ccc2c(c1)c(-c1ccccc1)cc(=O)n2C` (racemic) [Compound 2, (±)-6-[(4chlorophenyl)(1-methyl-1H-imidazol-5-yl)methyl]-1-methyl-4-phenyl-2(1H)-quinolinone] yielded a melting point of 96.8 °C. Also, half-maximal inhibition in data set [3] (IC50) was put at 8 nM.

The compound `Cn1cncc1C(CC#N)(c1ccc(Cl)cc1)c1ccc2c(c1)c(-c1cccc(Cl)c1)cc(=O)n2C` (racemic) [Compound 25, (±)-4-(3-chlorophenyl)-β-(4-chlorophenyl)-1,2-dihydro-1-methyl-β-(1-methyl-1H-imidazol-5-yl)-2-oxo-6-quinolinepropanenitrile] had a melting point of 151.3 °C. Besides, in data set [2], inhibition was half-maximal at 86 nM (IC50). For the same compound, half-maximal inhibition in data set [3] (IC50) required 2.2 nM. In the case of `Cn1cncc1C(O)(c1ccc(Cl)cc1)c1ccc2c(c1)c(-c1cccc(OCCO)c1)cc(=O)n2C` (stereo not drawn) [Compound 63], the IC50 in data set [2] was 53 nM; in data set [3], 1 nM. On to `Cn1cncc1C(c1ccc(Cl)cc1)c1ccc2c(c1)c(-c1cccc(Cl)c1)cc(=O)n2C` (racemic) [Compound 5, (±)-4-(3-chlorophenyl)-6-[(4-chlorophenyl)(1-methyl-1H-imidazol-5-yl)methyl]-1-methyl-2(1H)-quinolinone ethanedioate(1:1).mono-hydrate], for which the values for the IC50 in data set [2] and in data set [3] were 32 nM and 25 nM, respectively.

Take `Cn1cncc1C(N)(c1ccc(Cl)cc1)c1ccc2c(c1)c(-c1cccc(Cl)c1)cc(=O)n2C` (racemic) [Compound 14, (±)-6-[amino(4-chlorophenyl)(1-methyl-1H-imidazol-5-yl)methyl]-4-(3-chlorophenyl)-1-methyl-2(1H)-quinolinone]: the “% reduction final tumor weight at a dose of 25 mg/kg bid, po” value in data set [1] turned out to be 66%. This compound showed an IC50 in data set [2] of 3.8 nM. Turning to `Cn1cncc1C(CCl)(c1ccc(Cl)cc1)c1ccc2c(c1)c(-c1cccc(Cl)c1)cc(=O)n2C` (racemic) [Compound 69, (±)-6-[2-chloro-1-(4-chlorophenyl)-1-(1-methyl-1H-imidazol-5-yl)ethyl]-4-(3-chlorophenyl)-1-methyl-2(1H)-quinolinone ethanedioate (1:1)], the IC50 amounted to 14 nM in data set [2] and 3.4 nM in data set [3].

For `Cn1cncc1C(C)(c1ccc(Cl)cc1)c1ccc2c(c1)c(-c1cccc(Cl)c1)cc(=O)n2C` (racemic) [Compound 12, (±)-4-(3-chlorophenyl)-6-[1-(4-chlorophenyl)-1-(1-methyl-1H-imidazol-5-yl)ethyl]-1-methyl-2(1H)-quinolinone.ethanedioate (1:1)], the melting point worked out at 203.9 °C. Moreover, the IC50 in data set [2] turned out to be 66 nM. For the same compound, in data set [3], the IC50 was 4.2 nM. For the compound `COC(c1ccc(Cl)cc1)(c1ccc2c(c1)c(-c1cccc(Cl)c1)cc(=O)n2C)c1cncn1C` (racemic) (hydrate or solvate) [Compound 4, (±)-4-(3-chlorophenyl)-6-[(4-chlorophenyl)methoxy(1-methyl-1H-imidazol-5-yl)methyl]-1-methyl-2(1H)-quinolinone ethanedioate(1:1).dihydrate], the melting point came to 154.6 °C.
